Measurements: paper PMC4685510, “A Cell Biologist’s Field Guide to Aurora Kinase Inhibitors” (Frontiers in Oncology, 2015)

Legend:
Assay in all cases: biochemical
Format in all cases: biochemical
[1] = target: T1, 363 human kinases (including Aurora A/B/C) (Homo sapiens, UniProt O60285); details: ARK5/NUAK1, [ATP] 30 µM; for remaining activity at 0.1 µM: 100 nM; for remaining activity at 0.1 µM / remaining activity at 0.5 µM: read-out: % Enzyme Activity (relative to DMSO controls)
T1 sequence (O60285 1-661): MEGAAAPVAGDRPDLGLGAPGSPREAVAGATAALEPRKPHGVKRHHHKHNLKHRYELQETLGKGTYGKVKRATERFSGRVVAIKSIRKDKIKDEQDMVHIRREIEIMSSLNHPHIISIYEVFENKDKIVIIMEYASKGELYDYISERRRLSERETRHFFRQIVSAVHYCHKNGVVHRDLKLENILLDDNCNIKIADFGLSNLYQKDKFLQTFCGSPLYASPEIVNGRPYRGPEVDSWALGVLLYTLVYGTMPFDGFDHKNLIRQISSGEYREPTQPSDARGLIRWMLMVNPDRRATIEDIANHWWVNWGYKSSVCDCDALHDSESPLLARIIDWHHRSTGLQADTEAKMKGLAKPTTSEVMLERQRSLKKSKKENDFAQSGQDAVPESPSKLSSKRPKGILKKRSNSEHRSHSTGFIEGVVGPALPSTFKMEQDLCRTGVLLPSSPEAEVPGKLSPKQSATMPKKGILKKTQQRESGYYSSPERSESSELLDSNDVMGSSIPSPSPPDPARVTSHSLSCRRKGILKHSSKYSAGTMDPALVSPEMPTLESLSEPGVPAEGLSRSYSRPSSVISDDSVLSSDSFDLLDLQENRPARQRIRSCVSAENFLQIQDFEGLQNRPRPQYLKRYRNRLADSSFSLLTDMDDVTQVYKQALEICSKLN
From the text: (§1) However, the Aurora A/B selectivity ratios derived from our in vitro and in vivo data can be compared to prioritize inhibitors.

[2] = target: 363 human kinases (including Aurora A/B/C) (Homo sapiens, UniProt P27448); details: MARK3; for remaining activity at 0.1 µM: 100 nM; for remaining activity at 0.1 µM / remaining activity at 0.5 µM: read-out: % Enzyme Activity (relative to DMSO controls)
Sequence of 363 human kinases (including Aurora A/B/C) (Homo sapiens, UniProt P27448) (P27448 whole entry): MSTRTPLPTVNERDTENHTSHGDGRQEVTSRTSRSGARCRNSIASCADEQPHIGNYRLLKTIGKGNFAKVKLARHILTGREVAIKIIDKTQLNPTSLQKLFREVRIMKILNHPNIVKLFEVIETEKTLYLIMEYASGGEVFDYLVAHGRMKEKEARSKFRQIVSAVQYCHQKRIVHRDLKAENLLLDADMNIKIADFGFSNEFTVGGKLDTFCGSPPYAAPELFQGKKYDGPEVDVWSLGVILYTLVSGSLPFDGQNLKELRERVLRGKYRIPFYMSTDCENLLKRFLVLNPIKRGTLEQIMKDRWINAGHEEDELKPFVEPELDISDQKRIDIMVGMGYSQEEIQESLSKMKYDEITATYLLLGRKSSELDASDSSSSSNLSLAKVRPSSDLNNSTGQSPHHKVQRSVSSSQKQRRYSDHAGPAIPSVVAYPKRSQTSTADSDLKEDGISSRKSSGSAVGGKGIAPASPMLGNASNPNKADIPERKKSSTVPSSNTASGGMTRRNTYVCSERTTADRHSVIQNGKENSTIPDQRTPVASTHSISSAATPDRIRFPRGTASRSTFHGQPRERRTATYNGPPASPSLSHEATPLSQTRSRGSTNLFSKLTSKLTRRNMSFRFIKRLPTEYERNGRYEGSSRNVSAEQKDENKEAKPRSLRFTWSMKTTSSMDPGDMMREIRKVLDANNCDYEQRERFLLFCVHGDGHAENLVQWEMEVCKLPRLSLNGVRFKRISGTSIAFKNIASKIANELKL
From the text: as §1

[3] = target: 363 human kinases (including Aurora A/B/C) (Homo sapiens, UniProt P49761); details: CLK3, [ATP] 10 µM; for remaining activity at 0.1 µM: 100 nM; for remaining activity at 0.1 µM / remaining activity at 0.5 µM: read-out: % Enzyme Activity (relative to DMSO controls)
Sequence of 363 human kinases (including Aurora A/B/C) (Homo sapiens, UniProt P49761) (P49761 whole entry): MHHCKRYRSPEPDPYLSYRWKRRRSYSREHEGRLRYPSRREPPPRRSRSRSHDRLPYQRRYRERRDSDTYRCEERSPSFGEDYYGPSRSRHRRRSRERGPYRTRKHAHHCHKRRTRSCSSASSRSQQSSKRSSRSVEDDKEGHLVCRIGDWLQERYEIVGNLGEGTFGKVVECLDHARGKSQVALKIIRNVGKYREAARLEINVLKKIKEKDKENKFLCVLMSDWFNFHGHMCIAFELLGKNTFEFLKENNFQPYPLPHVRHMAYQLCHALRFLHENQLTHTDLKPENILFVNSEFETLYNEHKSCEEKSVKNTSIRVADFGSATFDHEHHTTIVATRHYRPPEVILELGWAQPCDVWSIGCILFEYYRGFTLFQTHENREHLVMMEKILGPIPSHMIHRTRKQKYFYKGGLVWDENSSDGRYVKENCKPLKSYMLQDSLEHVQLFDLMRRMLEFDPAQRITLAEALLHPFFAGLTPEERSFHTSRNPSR
From the text: as §1

[4] = target: 363 human kinases (including Aurora A/B/C) (Homo sapiens, UniProt P51957); details: NEK4; for remaining activity at 0.1 µM: 100 nM; for remaining activity at 0.1 µM / remaining activity at 0.5 µM: read-out: % Enzyme Activity (relative to DMSO controls)
Sequence of 363 human kinases (including Aurora A/B/C) (Homo sapiens, UniProt P51957) (P51957 whole entry): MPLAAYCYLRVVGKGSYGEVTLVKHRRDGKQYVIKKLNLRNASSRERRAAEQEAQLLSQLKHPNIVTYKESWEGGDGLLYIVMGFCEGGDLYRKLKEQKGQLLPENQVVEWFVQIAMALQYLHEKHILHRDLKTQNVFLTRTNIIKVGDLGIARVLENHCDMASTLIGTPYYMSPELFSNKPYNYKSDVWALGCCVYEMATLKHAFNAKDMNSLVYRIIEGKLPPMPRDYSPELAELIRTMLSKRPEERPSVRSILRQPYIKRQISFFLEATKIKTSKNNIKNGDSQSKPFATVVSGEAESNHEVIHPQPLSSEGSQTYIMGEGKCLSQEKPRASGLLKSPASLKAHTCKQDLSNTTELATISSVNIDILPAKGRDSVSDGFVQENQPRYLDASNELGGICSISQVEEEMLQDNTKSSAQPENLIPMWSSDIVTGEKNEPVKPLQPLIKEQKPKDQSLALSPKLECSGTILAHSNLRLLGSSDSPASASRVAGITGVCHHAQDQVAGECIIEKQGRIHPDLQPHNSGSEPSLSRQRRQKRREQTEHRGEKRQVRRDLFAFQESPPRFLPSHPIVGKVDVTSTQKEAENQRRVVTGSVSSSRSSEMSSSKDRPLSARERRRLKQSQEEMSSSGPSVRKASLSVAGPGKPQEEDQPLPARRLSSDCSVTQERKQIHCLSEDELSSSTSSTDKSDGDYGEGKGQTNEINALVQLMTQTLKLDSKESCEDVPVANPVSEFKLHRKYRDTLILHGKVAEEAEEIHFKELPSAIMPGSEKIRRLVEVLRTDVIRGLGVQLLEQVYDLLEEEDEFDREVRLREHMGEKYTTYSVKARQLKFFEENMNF
From the text: as §1

[5] = target: 363 human kinases (including Aurora A/B/C) (Homo sapiens, UniProt P57059); details: SIK1; for remaining activity at 0.1 µM: 100 nM; for remaining activity at 0.1 µM / remaining activity at 0.5 µM: read-out: % Enzyme Activity (relative to DMSO controls)
Sequence of 363 human kinases (including Aurora A/B/C) (Homo sapiens, UniProt P57059) (P57059 whole entry): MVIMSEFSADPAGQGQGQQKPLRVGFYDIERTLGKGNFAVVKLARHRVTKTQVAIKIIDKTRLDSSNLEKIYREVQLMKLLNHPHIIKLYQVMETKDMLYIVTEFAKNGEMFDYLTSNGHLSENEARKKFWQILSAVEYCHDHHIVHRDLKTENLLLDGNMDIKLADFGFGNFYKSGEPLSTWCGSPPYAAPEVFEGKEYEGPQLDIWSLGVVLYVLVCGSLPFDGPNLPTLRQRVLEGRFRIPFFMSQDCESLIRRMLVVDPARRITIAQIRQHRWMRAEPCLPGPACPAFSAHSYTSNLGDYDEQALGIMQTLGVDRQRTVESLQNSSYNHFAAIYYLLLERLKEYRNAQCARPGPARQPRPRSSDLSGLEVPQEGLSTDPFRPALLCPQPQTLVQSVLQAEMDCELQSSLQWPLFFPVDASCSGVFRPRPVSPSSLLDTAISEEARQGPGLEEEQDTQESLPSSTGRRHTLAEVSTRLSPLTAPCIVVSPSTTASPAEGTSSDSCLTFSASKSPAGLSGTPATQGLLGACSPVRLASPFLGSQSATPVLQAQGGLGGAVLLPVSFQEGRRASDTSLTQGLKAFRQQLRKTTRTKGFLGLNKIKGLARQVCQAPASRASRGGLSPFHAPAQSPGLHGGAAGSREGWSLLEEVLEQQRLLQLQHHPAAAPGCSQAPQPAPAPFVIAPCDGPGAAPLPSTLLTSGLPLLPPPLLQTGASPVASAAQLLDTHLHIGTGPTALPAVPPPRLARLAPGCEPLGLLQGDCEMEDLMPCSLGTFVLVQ
From the text: as §1

[6] = target: 363 human kinases (including Aurora A/B/C) (Homo sapiens, UniProt Q16513); details: PKN2/PRK2; for remaining activity at 0.1 µM: 100 nM; for remaining activity at 0.1 µM / remaining activity at 0.5 µM: read-out: % Enzyme Activity (relative to DMSO controls)
Sequence of 363 human kinases (including Aurora A/B/C) (Homo sapiens, UniProt Q16513) (Q16513 whole entry): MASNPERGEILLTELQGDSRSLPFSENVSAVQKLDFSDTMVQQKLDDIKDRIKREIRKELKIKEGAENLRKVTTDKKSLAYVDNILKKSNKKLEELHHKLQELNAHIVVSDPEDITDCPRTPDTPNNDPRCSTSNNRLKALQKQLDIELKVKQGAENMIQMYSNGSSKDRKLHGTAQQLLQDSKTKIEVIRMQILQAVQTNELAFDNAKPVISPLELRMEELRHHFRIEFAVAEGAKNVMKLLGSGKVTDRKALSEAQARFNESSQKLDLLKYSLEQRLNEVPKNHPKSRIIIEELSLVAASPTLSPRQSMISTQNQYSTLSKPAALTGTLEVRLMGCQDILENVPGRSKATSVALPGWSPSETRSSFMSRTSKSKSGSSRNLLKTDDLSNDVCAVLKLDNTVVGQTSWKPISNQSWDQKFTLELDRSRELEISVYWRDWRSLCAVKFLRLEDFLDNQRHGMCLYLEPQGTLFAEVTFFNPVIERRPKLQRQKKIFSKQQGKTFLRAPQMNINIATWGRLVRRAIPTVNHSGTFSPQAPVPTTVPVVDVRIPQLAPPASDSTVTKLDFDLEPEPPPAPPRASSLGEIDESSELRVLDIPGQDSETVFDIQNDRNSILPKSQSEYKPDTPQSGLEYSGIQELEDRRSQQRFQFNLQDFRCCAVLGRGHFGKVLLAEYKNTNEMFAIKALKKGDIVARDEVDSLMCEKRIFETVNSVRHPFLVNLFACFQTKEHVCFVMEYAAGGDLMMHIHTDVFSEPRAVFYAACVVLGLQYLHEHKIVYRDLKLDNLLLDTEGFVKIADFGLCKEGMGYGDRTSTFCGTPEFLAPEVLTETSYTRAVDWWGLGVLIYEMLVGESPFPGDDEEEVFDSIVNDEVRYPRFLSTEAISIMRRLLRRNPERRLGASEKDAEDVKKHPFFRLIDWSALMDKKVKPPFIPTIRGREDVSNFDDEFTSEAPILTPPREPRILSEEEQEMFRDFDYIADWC
From the text: as §1

[7] = target: T2, 363 human kinases (including Aurora A/B/C) (Homo sapiens, UniProt Q99986); details: VRK1; for remaining activity at 0.1 µM: 100 nM; for remaining activity at 0.1 µM / remaining activity at 0.5 µM: read-out: % Enzyme Activity (relative to DMSO controls)
T2 sequence (Q99986 1-396): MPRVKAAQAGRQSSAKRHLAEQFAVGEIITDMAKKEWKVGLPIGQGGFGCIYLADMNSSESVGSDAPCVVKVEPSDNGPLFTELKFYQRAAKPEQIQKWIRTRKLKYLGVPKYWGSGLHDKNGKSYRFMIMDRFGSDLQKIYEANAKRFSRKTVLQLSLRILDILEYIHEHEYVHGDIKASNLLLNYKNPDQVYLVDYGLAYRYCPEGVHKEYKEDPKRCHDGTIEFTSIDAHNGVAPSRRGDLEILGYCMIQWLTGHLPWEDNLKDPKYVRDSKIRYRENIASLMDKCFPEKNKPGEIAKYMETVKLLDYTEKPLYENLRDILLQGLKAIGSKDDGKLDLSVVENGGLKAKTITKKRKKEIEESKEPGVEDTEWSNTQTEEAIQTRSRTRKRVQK
From the text: as §1

[8] = target: 363 human kinases (including Aurora A/B/C) (Homo sapiens, UniProt Q9HAZ1); details: CLK4, [ATP] 100 µM; for remaining activity at 0.1 µM: 100 nM; for remaining activity at 0.1 µM / remaining activity at 0.5 µM: read-out: % Enzyme Activity (relative to DMSO controls)
Sequence of 363 human kinases (including Aurora A/B/C) (Homo sapiens, UniProt Q9HAZ1) (Q9HAZ1 whole entry): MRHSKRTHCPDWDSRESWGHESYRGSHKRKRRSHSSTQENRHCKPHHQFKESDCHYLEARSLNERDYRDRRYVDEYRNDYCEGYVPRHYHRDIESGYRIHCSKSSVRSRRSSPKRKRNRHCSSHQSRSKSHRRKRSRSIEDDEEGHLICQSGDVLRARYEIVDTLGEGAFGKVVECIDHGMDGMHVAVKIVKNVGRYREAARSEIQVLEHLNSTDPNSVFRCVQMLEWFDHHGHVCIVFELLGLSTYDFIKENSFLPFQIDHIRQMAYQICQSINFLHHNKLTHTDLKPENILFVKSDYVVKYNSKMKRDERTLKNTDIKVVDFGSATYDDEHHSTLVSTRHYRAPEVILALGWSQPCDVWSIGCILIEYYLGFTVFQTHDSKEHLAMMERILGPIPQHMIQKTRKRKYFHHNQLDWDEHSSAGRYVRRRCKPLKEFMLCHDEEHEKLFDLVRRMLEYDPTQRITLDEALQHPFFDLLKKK
From the text: as §1

[9] = target: 363 human kinases (including Aurora A/B/C) (Homo sapiens, UniProt Q9NYY3); details: PLK2; for remaining activity at 0.1 µM: 100 nM; for remaining activity at 0.1 µM / remaining activity at 0.5 µM: read-out: % Enzyme Activity (relative to DMSO controls)
Sequence of 363 human kinases (including Aurora A/B/C) (Homo sapiens, UniProt Q9NYY3) (Q9NYY3 whole entry): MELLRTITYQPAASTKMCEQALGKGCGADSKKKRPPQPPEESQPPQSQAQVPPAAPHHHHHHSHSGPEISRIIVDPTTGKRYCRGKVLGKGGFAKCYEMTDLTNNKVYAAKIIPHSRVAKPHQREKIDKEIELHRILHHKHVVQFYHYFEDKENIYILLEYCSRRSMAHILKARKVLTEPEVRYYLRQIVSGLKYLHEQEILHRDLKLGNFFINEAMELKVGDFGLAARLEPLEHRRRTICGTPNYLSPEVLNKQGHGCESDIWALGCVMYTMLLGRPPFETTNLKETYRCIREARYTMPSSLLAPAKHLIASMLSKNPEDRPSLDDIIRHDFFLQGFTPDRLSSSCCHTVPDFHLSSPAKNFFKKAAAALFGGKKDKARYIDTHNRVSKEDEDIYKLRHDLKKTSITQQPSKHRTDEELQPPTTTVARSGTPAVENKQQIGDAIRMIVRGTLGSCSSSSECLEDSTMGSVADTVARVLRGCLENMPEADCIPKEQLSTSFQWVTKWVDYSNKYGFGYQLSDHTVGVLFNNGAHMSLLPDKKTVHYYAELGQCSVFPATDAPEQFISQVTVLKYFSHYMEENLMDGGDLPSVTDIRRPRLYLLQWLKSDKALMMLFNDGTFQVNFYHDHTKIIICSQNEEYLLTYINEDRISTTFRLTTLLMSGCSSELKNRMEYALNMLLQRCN
From the text: as §1

[10] = target: T3, 363 human kinases (including Aurora A/B/C) (Homo sapiens, UniProt Q9UF33); details: EPHA6, [ATP] 100 µM; for remaining activity at 0.1 µM: 100 nM; for remaining activity at 0.1 µM / remaining activity at 0.5 µM: read-out: % Enzyme Activity (relative to DMSO controls)
T3 sequence (Q9UF33 23-1036): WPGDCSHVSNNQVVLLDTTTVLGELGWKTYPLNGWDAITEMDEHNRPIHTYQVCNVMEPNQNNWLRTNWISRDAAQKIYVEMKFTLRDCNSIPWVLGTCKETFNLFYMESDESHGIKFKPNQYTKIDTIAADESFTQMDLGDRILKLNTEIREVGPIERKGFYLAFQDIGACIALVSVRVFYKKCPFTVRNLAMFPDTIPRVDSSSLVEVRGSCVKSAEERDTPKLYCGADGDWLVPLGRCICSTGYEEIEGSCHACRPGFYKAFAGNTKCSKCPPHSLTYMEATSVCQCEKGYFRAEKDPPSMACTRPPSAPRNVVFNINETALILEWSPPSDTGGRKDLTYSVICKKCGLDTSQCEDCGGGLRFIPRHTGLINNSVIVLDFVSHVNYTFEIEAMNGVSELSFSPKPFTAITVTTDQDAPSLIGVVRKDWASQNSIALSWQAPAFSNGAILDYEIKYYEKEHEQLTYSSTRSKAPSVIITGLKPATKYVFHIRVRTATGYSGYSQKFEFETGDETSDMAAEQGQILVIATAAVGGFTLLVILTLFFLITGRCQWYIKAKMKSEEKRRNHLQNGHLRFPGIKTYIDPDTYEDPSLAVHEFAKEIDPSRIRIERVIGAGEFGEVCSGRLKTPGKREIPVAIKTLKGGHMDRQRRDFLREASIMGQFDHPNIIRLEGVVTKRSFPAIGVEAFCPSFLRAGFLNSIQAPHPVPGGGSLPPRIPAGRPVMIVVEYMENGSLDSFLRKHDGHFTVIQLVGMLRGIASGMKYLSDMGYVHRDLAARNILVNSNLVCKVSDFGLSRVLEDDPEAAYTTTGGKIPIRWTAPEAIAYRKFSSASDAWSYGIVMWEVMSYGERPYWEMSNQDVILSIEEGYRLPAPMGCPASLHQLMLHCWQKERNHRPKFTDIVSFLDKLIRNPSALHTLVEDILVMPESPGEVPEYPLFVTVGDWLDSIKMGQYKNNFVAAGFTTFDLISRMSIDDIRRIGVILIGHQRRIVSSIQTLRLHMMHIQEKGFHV
From the text: as §1

[11] = target: 363 human kinases (including Aurora A/B/C) (Homo sapiens, UniProt Q9Y3S1); details: WNK2; for remaining activity at 0.1 µM: 100 nM; for remaining activity at 0.1 µM / remaining activity at 0.5 µM: read-out: % Enzyme Activity (relative to DMSO controls)
From the text: as §1

Structure (SMILES) | remaining activity at 0.1 µM [1] [%] | remaining activity at 0.1 µM [2] [%] | remaining activity at 0.1 µM [3] [%] | remaining activity at 0.1 µM [4] [%] | remaining activity at 0.1 µM [5] [%] | remaining activity at 0.1 µM [6] [%] | remaining activity at 0.1 µM [7] [%] | remaining activity at 0.1 µM [8] [%] | remaining activity at 0.1 µM [9] [%] | remaining activity at 0.1 µM [10] [%] | remaining activity at 0.1 µM [11] [%] | remaining activity at 0.5 µM ([1]; 500 nM) [%] | remaining activity at 0.5 µM ([2]; 500 nM) [%] | remaining activity at 0.5 µM ([3]; 500 nM) [%] | remaining activity at 0.5 µM ([4]; 500 nM) [%] | remaining activity at 0.5 µM ([5]; 500 nM) [%] | remaining activity at 0.5 µM ([6]; 500 nM) [%] | remaining activity at 0.5 µM ([7]; 500 nM) [%] | remaining activity at 0.5 µM ([8]; 500 nM) [%] | remaining activity at 0.5 µM ([9]; 500 nM) [%] | also measured
CCn1cc(-c2ccnc3[nH]c(-c4cccc(CN(C)C)c4)cc23)c(-c2ccc(NC(=O)N(C)C)cc2)n1 [GSK1070916] | 92.5 | 97.2 | 83.4 | 111 | 40.7 | 115 | 89.3 | 70.3 | 91.2 | 89.4 | 92.3 | – | – | – | – | – | – | – | – | – | –
O=C(O)[C@]1(Cc2cccc(Nc3nccs3)n2)CC[C@@H](Oc2cccc(Cl)c2F)CC1 [MK-5108] | 79.6 | 98.4 | 97.5 | 96.7 | 103 | 108 | 86.9 | 34.9 | 88.8 | 5.77 | 83 | 42.7 | 107 | 71.5 | 113 | 54.4 | 108 | 94 | 6.67 | 85.1 | remaining activity at 0.5 µM ([10]; 500 nM): 1.6%; remaining activity at 0.5 µM ([11]; 500 nM): 33.8%
O=C(c1cccc(Cl)c1F)N1CCN(Cc2cccc(Nc3nccs3)n2)CC1 [MK-8745] | – | – | – | – | – | – | – | – | – | – | – | 76.7 | 111 | 82.7 | 107 | 95.7 | 104 | 97.3 | 59.9 | 81.9 | % Enzyme Activity (relative to DMSO controls) ([1]; 500 nM): 73.30%; % Enzyme Activity (relative to DMSO controls) ([2]; 500 nM): 110.19%; % Enzyme Activity (relative to DMSO controls) ([3]; 500 nM): 82.30%; % Enzyme Activity (relative to DMSO controls) ([4]; 500 nM): 103.20%; % Enzyme Activity (relative to DMSO controls) ([5]; 500 nM): 93.78%; % Enzyme Activity (relative to DMSO controls) ([6]; 500 nM): 103.16%; % Enzyme Activity (relative to DMSO controls) ([7]; 500 nM): 94.39%; % Enzyme Activity (relative to DMSO controls) ([8]; 500 nM): 57.02%; % Enzyme Activity (relative to DMSO controls) ([9]; 500 nM): 81.10%; % Enzyme Activity (relative to DMSO controls) ([10]; 500 nM): 34.30%; remaining activity at 0.5 µM ([10]; 500 nM): 34.6%; % Enzyme Activity (relative to DMSO controls) ([11]; 500 nM): 101.71%; remaining activity at 0.5 µM ([11]; 500 nM): 102%
